Reference: US20170348337A1, “MULTIFUNCTIONAL MEMBRANE-ACTIVE AMINOGLYCOSIDE-PEPTIDE CONJUGATES” (priority 2014, published 2017)
In brackets after ≈: the same amount, converted by molar mass. Read-outs that look alike come from different tables or passages of the source. Residues, ends and D or L forms follow the SMILES beside them. No end group written: not given here. Tobramycin = aminoglycoside, conjugated at the peptide N-terminus; Neomycin = aminoglycoside, conjugated at the peptide N-terminus

What was measured:
E. coli persisters = assay: E. coli persister killing assay, pentobra plus adjuvant; format: cell-based; details: 10 mM arabinose; 1.5 hours
Experimental: Bacterial persisters were prepared essentially as described above, by growing an E. coli culture for 18-24 hours, at which point 100 μg/ml ampicillin was added for a 4-hour incubation to kill non-persisters. The cells were washed with M9 salts without carbon source, and subsequently diluted with M9 salts to an appropriate cell count for the killing assay. Approximately 10^6 E. coli cells per well were placed in a total volume of 100 μl in a 96-well plate on a shaker at 37° C. for 1.5 hours in the presence of each the following, respectively: Pentobra, Pentobra-plus-glucose (as adjuvant), tobramycin, tobramycin-plus-glucose (as adjuvant). A concentration series was used with 50, 25, 12.5, 6.25 and 0 μM for pentobra or tobramycin, and correspondingly 10, 5, 2.5, 1.25 and 0 mM for glucose. Incubation, dilution, and plating for colony assay determination were as described above. In a separate experiment, approximately 10^6 E. coli cells per well were placed in a total volume of 100 μl in a 96-well plate at 37° C. for 1.5 hours in the presence of each the following, respectively: pentobra, pentobra-plus-10 mM arabinose (as adjuvant), tobramycin, tobramycin-plus-10 mM arabinose (as adjuvant).
Persister cells were isolated and experiments to test for bactericidal activity were performed as described in Example 7 above.

NIH/3T3 cells [1] = assay: LIVE/DEAD viability/cytotoxicity assay; details: 100 μM; 8 h
Experimental: The effect of Pentobra on the plasma membrane integrity was investigated on NIH/3T3 cells using the Live/Dead® Viability/Cytotoxicity Kit (Molecular Probes). Briefly, 50,000 cells/well were incubated in a 24-well plate and treated with 100 μM of tobramycin, Pen peptide or Pentobra for 8 h at 37° C. Then, the cells were stained with 100 μL of the live/Dead assay reagents (2 μM calcein and 4 μM ethidium homodimer), and incubated at 37° C. for 20 min. The labeled cells were counted using a Zeiss Axiovert Observer Z1 inverted fluorescent microscope (at least 160 cells were counted for each treatment).
In addition, the effect of Pentobra on the cell membrane integrity was evaluated using the LIVE/DEAD® cell viability assay. This assay simultaneously determined intracellular esterase activity and plasma membrane integrity using two distinct dyes: a) calcein, a membrane permeable polyanionic dye that must be hydrolyzed by intracellular esterases (dead cells lack active esterases) to produce a green fluorescence and b) ethidium homodimer, a membrane impermeable red fluorescent dye that can only penetrate cells with compromised membranes.

NIH/3T3 cells [2] = assay: CellTox Green cytotoxicity assay; format: cell-based, mouse; details: concentrations up to 100 μM; 8 h incubation
Experimental: CellTox™ Green assay. The cytotoxicity of Pentobra was investigated on NIH/3T3 cells (ATCC) using CellTox™ Green assay (Promega, United States of America). Cells were seeded in a 96 well plate at a concentration of 2.5×10^3 cells/well. 100 μL of DMEM media were added to each well containing 0.2% CellTox green dye and varying concentrations of Pentobra, CPP or tobramycin and incubated for 8 and 24 h before the plate was read using an excitation wavelength of 485 nm and emission filter of 535 nm on a microplate reader (Beckman Coulter, DTX 880 Multimode Detector). A lysis solution, known to be toxic to the cells, was used as a positive control which represented the maximum dead cell signal obtainable from non-proliferating cells. The untreated cell population represented the maximal negative control signal obtainable at the end of an exposure period. The fluorescence values were normalized (from positive and negative controls) and converted to corresponding viability values.

[3] = tested on: Peripheral Blood Mononuclear Cells (PBMCs); assay: cell viability assay (MTT section, CellTiter-GLO); format: cell-based, human; details: 26 μM; over 72 hr
Experimental: (§1) Cell proliferation experiments were performed in 96-well plates (5 replicates). 26 μM of Pentobra and Tobramycin treatments were initiated at 24 hours post-seeding for 3 days. Stocks and dilutions of PLX4032/vemurafenib (Plexxikon) and AZD6244/selumetenib (Selleck Chemicals) were made in dimethyl sulfoxide (DMSO). Three cell types (PBMCs, Keratinocytes and Sebocytes cell lines) were tested. Cells were quantified using CellTiter-GLO Luminescence (Promega) following the manufacturer's recommendations.

sebocytes = assay: cell viability assay (MTT section, CellTiter-GLO); format: cell-based, human; details: 26 μM; over 72 hr
Experimental: as §1

keratinocytes = assay: cell viability assay (MTT section, CellTiter-GLO); format: cell-based, human; details: 26 μM; over 72 hr
Experimental: as §1

Klebsiella (Kleb) = assay: microbe, parasite or virus in culture; format: cell-based; details: isolate Kleb, W6921701-1
Description: (§2) Pentobra was screened against a broad panel of microbial pathogens, including strains of E. coli, MRSA, Klebsiella (Kleb), Acinetobacter (AcB), Vancomycin-Sensitive Enterococci (VSE) and Vancomycin-Resistant Enterococci (VRE), and specifically including E. faecalis samples. […] The experimenter reported the minimum inhibitory concentration (MIC) in mass units per unit volume (μg/mL) for each compound, and MIC data were converted into molar concentrations (μM) due to the large difference between the molecular weight of tobramycin (467.5 g/mol) and Pentobra (2277 g/mol).

Acinetobacter (AcB) = assay: microbe, parasite or virus in culture; format: cell-based; details: isolate AcB, PM1434
Description: as §2

E. coli [4] = assay: microbe, parasite or virus in culture; format: cell-based
Description: as §2

MRSA = assay: microbe, parasite or virus in culture; format: cell-based; details: isolate MRSA
Description: as §2

[5] = tested on: Vancomycin-Resistant Enterococci (VRE); assay: microbe, parasite or virus in culture; format: cell-based
Description: as §2

S. aureus = assay: antimicrobial activity (MIC) of P-L-A conjugates; format: cell-based
E. coli [6] = assay: antimicrobial activity (MIC) of P-L-A conjugates; format: cell-based
P. aeruginosa = assay: antimicrobial activity (MIC) of P-L-A conjugates; format: cell-based; details: for MIC: stationary
[7] = tested on: Vancomycin-Sensitive Enterococci (VSE); assay: organism not typed; format: cell-based
Description: as §2

[8] = cited from earlier work

Compound: O=C[C@@H](O)[C@H](O)[C@H](O)CO [Arabinose, arabinose]
- effect on killing potency of pentobra (E. coli persisters): enhanced pentobra, but to a lesser extent

Compound: CC[C@H](C)[C@H](NC(=O)[C@H](CCCCN)NC(=O)[C@@H](NC(=O)[C@H](CCC(N)=O)NC(=O)[C@H](CCCNC(=N)N)NC(=O)CCC(=O)OC[C@H]1O[C@H](O[C@@H]2[C@@H](O)[C@H](O[C@H]3O[C@H](CN)[C@@H](O)C[C@H]3N)[C@@H](N)C[C@H]2N)[C@H](O)[C@@H](N)[C@@H]1O)[C@@H](C)CC)C(=O)N[C@@H](Cc1c[nH]c2ccccc12)C(=O)N[C@@H](Cc1ccccc1)C(=O)N[C@@H](CCC(N)=O)C(=O)N[C@@H](CC(N)=O)C(=O)N[C@@H](CCCNC(=N)N)C(=O)N[C@@H](CCCNC(=N)N)C(=O)N[C@@H](Cc1c[nH]c2ccccc12)C(=O)O [Pentobra] (HELM PEPTIDE1{[NC[C@H]1O[C@H](O[C@H]2[C@H](O)[C@@H](O[C@H]3O[C@H](COC(=O)CCC(=O)[*:2])[C@@H](O)[C@H](N)[C@H]3O)[C@H](N)C[C@@H]2N)[C@H](N)C[C@@H]1O].R.Q.I.K.I.W.F.Q.N.R.R.W}$$$$V2.0)
- cytotoxicity (percentage of red stained cells) (NIH/3T3 cells [1]): no statistical difference in cytotoxicity
- plasma membrane integrity of eukaryotic cells (NIH/3T3 cells [1]): did not induce any loss of plasma membrane integrity
- cytotoxic effect (NIH/3T3 cells [2]): did not show any cytotoxic effect
- viability [3]: did not affect the viability
- viability (sebocytes): did not affect the viability
- viability (keratinocytes): did not affect the viability
- MIC (Klebsiella (Kleb)): 7 µM (≈ 16 µg/mL)
- MIC (Acinetobacter (AcB)): 7 µM (≈ 16 µg/mL)
- MIC (E. coli [4]; isolate ATCC 25922, Ecoli (second entry)): 4 µM (≈ 9.12 µg/mL)
- MIC (E. coli [4]; isolate ATCC Ecoli, 25922 (first entry)): 2 µM (≈ 4.56 µg/mL)
- MIC (E. coli [4]; isolate Ecoli,YD461): 7 µM (≈ 16 µg/mL)
- MIC (MRSA; F2806774): 56 µM (≈ 128 µg/mL)
- MIC (MRSA; H2867813): >56 µM
- MIC ([5]; isolate 24670, VRE^? (second entry)): 14 µM (≈ 31.9 µg/mL)
- MIC ([5]; isolate F6541102, VRE): >56 µM
- MIC ([5]; isolate H6926031, VRE*): 14 µM (≈ 31.9 µg/mL)
- MIC ([5]; isolate M6865034, VRE): 14 µM (≈ 31.9 µg/mL)
- MIC ([5]; isolate S3899836, VRE^? (second entry)): 14 µM (≈ 31.9 µg/mL)
- MIC ([5]; isolate VRE, 24670): 14 µM (≈ 31.9 µg/mL)
- MIC ([5]; isolate VRE, S3899836): 14 µM (≈ 31.9 µg/mL)
- MIC (μM) S. aureus (mid-log) (S. aureus): 25 μM
- MIC (μM) E. coli (mid-log) (E. coli [6]): 6.25 μM
- MIC (μM) P. aeruginosa (mid-log) (P. aeruginosa): 6.25-12.5 μM
- MIC (P. aeruginosa): 25 µM (≈ 57 µg/mL)
- MIC ([7]; isolate S4895552, VSE, LZD-R): 14 µM (≈ 31.9 µg/mL)
- MIC ([7]; isolate W7171143,VSE): 56 µM (≈ 128 µg/mL)
- MIC ([7]; isolate W7214342,VSE): 28 µM (≈ 63.9 µg/mL)
- MIC ([7]; isolate X4540299, VSE): 14 µM (≈ 31.9 µg/mL)

Compound: NCC[C@H](O)C(=O)N[C@@H]1C[C@H](N)[C@@H](O[C@H]2O[C@H](CN)[C@@H](O)[C@H](O)[C@H]2O)[C@H](O)[C@H]1O[C@H]1O[C@H](CO)[C@@H](O)[C@H](N)[C@H]1O [amikacin]
- octanol→water partition coefficient Log P ([8]; aminoglycosides): −3.34

Compound: NC[C@H]1O[C@H](O[C@H]2[C@H](O)[C@@H](O[C@H]3O[C@H](CO)[C@@H](O)[C@H](N)[C@H]3O)[C@H](N)C[C@@H]2N)[C@H](O)[C@@H](O)[C@@H]1O [kanamycin]
- octanol→water partition coefficient Log P ([8]; aminoglycosides): −4.55

Compound: NC[C@@H]1O[C@H](O[C@H]2[C@@H](O)[C@H](O[C@@H]3[C@@H](O)[C@H](N)C[C@H](N)[C@H]3O[C@H]3O[C@H](CO)[C@@H](O)[C@H](O)[C@H]3N)O[C@@H]2CO)[C@H](N)[C@@H](O)[C@@H]1O [paromomycin]
- octanol→water partition coefficient Log P ([8]; aminoglycosides): −3.27

Compound: [H]/N=C(/N)N[C@H]1[C@H](O)[C@@H](O)[C@H](O[C@@H]2O[C@@H](C)[C@](O)(C=O)[C@H]2O[C@@H]2O[C@@H](CO)[C@H](O)[C@@H](O)[C@@H]2NC)[C@@H](N/C(N)=N\[H])[C@@H]1O [streptomycin]
- octanol→water partition coefficient Log P ([8]; aminoglycosides): −2.53

Compound: OC[C@H]1O[C@@](CO)(O[C@H]2O[C@H](CO)[C@@H](O)[C@H](O)[C@H]2O)[C@@H](O)[C@@H]1O [sucrose]
- octanol→water partition coefficient Log P ([8]; sugars, Mazzobre et. al. 2005): −3.30

Compound: OC[C@H]1O[C@H](O[C@H]2O[C@H](CO)[C@@H](O)[C@H](O)[C@H]2O)[C@H](O)[C@@H](O)[C@@H]1O [trehalose]
- octanol→water partition coefficient Log P ([8]; sugars, Mazzobre et. al. 2005): −3.77

Compound: Amphi Pentobra: Tobramycin-GWIRNQFRKIWQR [SEQ ID NO: 81], N-terminal conjugation
- MIC (μM) E. coli (mid-log) (E. coli [6]): 3.12 μM
- MIC (μM) P. aeruginosa (mid-log) (P. aeruginosa): 12.5 μM

Compound: Neo13: Neomycin-GFHGVKNLARRIL [SEQ ID NO: 109], N-terminal conjugation
- MIC (μM) S. aureus (mid-log) (S. aureus): 12.5 μM
- MIC (μM) P. aeruginosa (mid-log) (P. aeruginosa): 12.5 μM
- MIC (P. aeruginosa): 50 µM

Compound: NeoGP11: Neomycin-GPWWFKWPRLI [SEQ ID NO: 123], N-terminal conjugation
- MIC (μM) P. aeruginosa (mid-log) (P. aeruginosa): 12.5 μM
- MIC (P. aeruginosa): 50 µM

Compound: RQIKIWFQNRRW [Pen peptide]
- cytotoxicity (percentage of red stained cells) (NIH/3T3 cells [1]): no statistical difference in cytotoxicity

Compound: Reverse Pentobra: Tobramycin-GWRRNQFWIKIQR [SEQ ID NO: 95], N-terminal conjugation
- MIC (μM) E. coli (mid-log) (E. coli [6]): 3.12 μM
- MIC (μM) P. aeruginosa (mid-log) (P. aeruginosa): 12.5 μM

Compound: TobrGW12: Tobramycin-GWRNQIRKGWQR [SEQ ID NO: 135], N-terminal conjugation
- MIC (μM) P. aeruginosa (mid-log) (P. aeruginosa): 6.25 μM
- MIC (P. aeruginosa): 12.5 µM

Compound: gentamycin
- octanol→water partition coefficient Log P ([8]; aminoglycosides): −2.47

Compound: neomycin
- octanol→water partition coefficient Log P ([8]; aminoglycosides): −3.65
- MIC (μM) S. aureus (mid-log) (S. aureus): 1.56 μM
- MIC (P. aeruginosa): 12.5 µM
